# According to patent US9687522B2, “Methods of treating a subject afflicted with an autoimmune disease using predictive biomarkers of clinical response to glatiramer acetate therapy in multiple sclerosis” (TEVA PHARMACEUTICAL INDUSTRIES, LTD., priority 2010, dated 2017):
# Assays:
# [1] = system: IL-17; assay: IL-17 by ELISA in ex-vivo PBMC supernatant of GA-treated MS patients; type: cell-based, human
# Protocol: (§1) Approximately 60 cc of blood was obtained by venipuncture from each MS patient pre-treatment and at successive time points during treatment (3 months, 6 months, 9-12 months and 24 months). PBMC were purified using Ficoll-Hypaque gradients as described in the supplier's protocol (ICN Biomedicals Inc. Ohio, USA). Samples from collaborating centers were sent via overnight FedEx™ delivery at room temperature and processed immediately upon arrival.
# (§2) 2×10^5 PBMC/well were seeded in 96 well U-bottom micro titer plate in the absence of antigen (unstimulated condition) (US) or the presence of GA at 40 and 100 μg/ml (Teva Pharmaceutical Industries, Ltd., Israel), tetanus toxoid (TT 5 μg) obtained from UMASS (University of Mass, Worcester, Mass.). The latter was used as a control antigen. Supernatants were collected from cultured cells at days 1, 3 and 5 for various assays. After 5 days, 1 μCi ^3H-thymidine was added. Cells were harvested 18 hours later using TOMTEC cell harvester (TOMTEC, Hamden Conn.). Incorporated radioactivity was measured using a liquid Scintillation counter (Wallac MicroBeta Trilux, PerkinElmer, Boston, Mass.).
# (§3) Interleukin-18 and caspase-1 levels were detected by human ELISA kits (Sandwich ELISA, Bender Nedaystems, USA). The sensitivity of the ELISA was 9.2 and 3.3 pg/ml for IL-18 and caspase-1 respectively. TGF-β, TNF-α, IL-4, IFN-γ, IL-17 and IL-10 levels were detected by human ELISA kits from ebioscience (San Diego Calif., 92121 USA). The sensitivity of the ebioscience kits were 60 pg/ml, 4 pg/ml, 2 pg/ml, 4 pg/ml, 4 pg/ml and 2 pg/ml respectively. BDNF was detected by the Human BDNF ELISA kit from Chemicon International (catalog #CYT306). The sensitivity of the BDNF ELISA was 7.8 pg/ml. […] Duplicates should be within 20% of the mean.
# [2] = system: IL-10; assay: Serum IL-10 by ELISA in GA-treated MS patients; type: in vivo, human
# From the text: as §1, §3
# [3] = system: PBMC; assay: Lymphoproliferation assay (3H-thymidine) of ex-vivo PBMC; type: cell-based, human
# Protocol: as §1, §2
# [4] = system: class II MHC molecules of mouse and human origin; settings: cited from earlier work
# [5] = system: IL-4/IFN-γ ratio; assay: IL-4/IFN-γ ratio by ELISPOT in ex-vivo PBMC of GA-treated MS patients; type: cell-based, human; settings: for IL-4/IFN-γ RATIO (ELISPOT): CD3/CD28 stimulated PBMC
# From the text: as §1
# Human IFN-γ (Th1 indicator) and IL-4 (Th2 indicator) were measured by the ELISPOT assay according to the manufacturer's protocol (BD Biosciences, San Diego, Calif., USA). Briefly, ELISPOT plates (PVDF plate, Millipore Corporation, MA, USA) were coated with 100 μl/well of 5 μg/ml capture antibody at 4° C. over night. The plates were then washed with PBS, and incubated with 200 μl/well of blocking solution (culture medium) for 2 hours. PBMC (2×10^5 cells/well for IFN-γ and 4×10^5 cells/well for IL-4 detection) and antigen (GA 40 and 100 μg/ml, TT 5 μg/ml, CD3Ab (2.5 μg/ml)/CD28 Ab (1 μg/ml)) was added and cultured overnight at 37° C. in a 5% CO2 incubator. Samples were tested in triplicate wells in response to each antigen. After overnight culture, the plates were washed twice with deionized water and three times with PBS, then incubated with 100 μl of 2.0 μg/ml biotinylated antibody for 2 hours at room temperature. The plates were then washed three times with wash buffer (0.05% Tween-20 PBS), and incubated with 100 μl of 1:100 dilution of Avidin-HRP for 1 hour at room temperature and washed three times with wash buffer. Finally 100 μl of AEC (3-amino-9-ethyl-carbazole) substrate was added and the reaction was stopped by washing plates with distilled water. Spots were counted and analyzed by CTL Analyzers LLC ELISPOT Plate Reader (Cleveland, Ohio, USA).
substance,measurement,setting,value
Glatiramer acetate [GA],Supernatant IL-17 level,"[1]; HR/NR, 3 mo",160 ± 25 pg/mL
same,Supernatant IL-17 level,"[1]; HR/NR, 6 mo",146 ± 25 pg/mL
same,Supernatant IL-17 level,"[1]; HR/NR, 9-12 mo",129 ± 7.3 pg/mL
same,Supernatant IL-17 level,"[1]; HR/NR, 24 mo",179 ± 21 pg/mL
same,Supernatant IL-17 level,"[1]; HR/NR, Pre-Rx",178 ± 25 pg/mL
same,Supernatant IL-17 level,"[1]; R, 3 mo",184 ± 40 pg/mL
same,Supernatant IL-17 level,"[1]; R, 6 mo",60 ± 35 pg/mL
same,Supernatant IL-17 level,"[1]; R, 9-12 mo",134 ± 12 pg/mL
same,Supernatant IL-17 level,"[1]; R, 24 mo",167 ± 18 pg/mL
same,Supernatant IL-17 level,"[1]; R, Pre-Rx",176 ± 31 pg/mL
same,Serum IL-10 level,"[2]; HR/NR, 3 mo",40 ± 7.0 pg/mL
same,Serum IL-10 level,"[2]; HR/NR, 6 mo",37 ± 8.3 pg/mL
same,Serum IL-10 level,"[2]; HR/NR, 9-12 mo",40 ± 7.0 pg/mL
same,Serum IL-10 level,"[2]; HR/NR, 24 mo",37.6 ± 5 pg/mL
same,Serum IL-10 level,"[2]; HR/NR, Pre-Rx",38 ± 9 pg/mL
same,Serum IL-10 level,"[2]; R, 3 mo",47 ± 8.1 pg/mL
same,Serum IL-10 level,"[2]; R, 6 mo",67 ± 11 pg/mL
same,Serum IL-10 level,"[2]; R, 9-12 mo",69.8 pg/mL
same,Serum IL-10 level,"[2]; R, 24 mo",56 ± 18 pg/mL
same,Serum IL-10 level,"[2]; R, Pre-Rx",32 ± 4.5 pg/mL
same,"Δ IL-10 6 months, Median (Non-Responders)","[2]; serum, change from baseline",−1.5
same,"Δ IL-10 6 months, Median (Responders)","[2]; serum, change from baseline",15
same,"Δ IL-10 9 months, Median (Non-Responders)","[2]; serum, change from baseline",−2
same,"Δ IL-10 9 months, Median (Responders)","[2]; serum, change from baseline",42
same,"Δ IL-10 24 months, Median (Non-Responders)","[2]; serum, change from baseline",1
same,"Δ IL-10 24 months, Median (Responders)","[2]; serum, change from baseline",29
same,ex-vivo PBMC proliferative response over the course of GA treatment,"[3]; antigens GA 40 and 100 μg/ml, TT 5 μg/ml, ΔCPM",initial increase in the proliferative response to GA and TT at 3 months during treatment followed by a decline after 6 months of treatment
same,"PBMC proliferation, GA-R versus GA-HR/NR","[3]; before or during treatment at 3, 6, 12 months or 2 years, p >0.05",no difference in PBMC proliferation to GA or TT between GA-R and GA-HR/NR
same,binding to class II MHC molecules,[4],binds promiscuously and with high affinity
same,IL-4/IFN-γ RATIO (ELISPOT),"[5]; HR/NR, 3 mo",0.08 ± 0.02
same,IL-4/IFN-γ RATIO (ELISPOT),"[5]; HR/NR, 6 mo",0.06 ± 0.05
same,IL-4/IFN-γ RATIO (ELISPOT),"[5]; HR/NR, 9-12 mo",0.08 ± 0.05
same,IL-4/IFN-γ RATIO (ELISPOT),"[5]; HR/NR, 24 mo",0.10 ± 0.05
same,IL-4/IFN-γ RATIO (ELISPOT),"[5]; HR/NR, Baseline",0.12 ± 0.05
same,IL-4/IFN-γ RATIO (ELISPOT),"[5]; R, 3 mo",0.24 ± 0.04
same,IL-4/IFN-γ RATIO (ELISPOT),"[5]; R, 6 mo",0.32 ± 0.07
same,IL-4/IFN-γ RATIO (ELISPOT),"[5]; R, 9-12 mo",0.34 ± 0.08
same,IL-4/IFN-γ RATIO (ELISPOT),"[5]; R, 24 mo",0.25 ± 0.07
same,IL-4/IFN-γ RATIO (ELISPOT),"[5]; R, Baseline",0.11 ± 0.02
same,IL-4/IFN-γ ratio in unstimulated and in anti-CD3/CD28 stimulated PBMC,"[5]; GA-R, during treatment versus pre-treatment",significantly higher among GA-R during treatment compared to pre-treatment levels
